From patent US6020330A, “Hypolipidemic 1,4-benzothiazepine-1,1-dioxides” (Hoechst Aktiengesellschaft, priority 1997, dated 2000)

Biological target: T1, ileal transporter of the rabbit (RIBAT) (Oryctolagus cuniculus, UniProt Q28727)
T1 construct: contained the total protein-coding region of the RIBAT; expressed in transfected cells; host or cells: CHO cells, stably transfected with pRIBAT8 (pcDNA1neo vector), G418-selected clonal line
T1 sequence (Q28727 1-347): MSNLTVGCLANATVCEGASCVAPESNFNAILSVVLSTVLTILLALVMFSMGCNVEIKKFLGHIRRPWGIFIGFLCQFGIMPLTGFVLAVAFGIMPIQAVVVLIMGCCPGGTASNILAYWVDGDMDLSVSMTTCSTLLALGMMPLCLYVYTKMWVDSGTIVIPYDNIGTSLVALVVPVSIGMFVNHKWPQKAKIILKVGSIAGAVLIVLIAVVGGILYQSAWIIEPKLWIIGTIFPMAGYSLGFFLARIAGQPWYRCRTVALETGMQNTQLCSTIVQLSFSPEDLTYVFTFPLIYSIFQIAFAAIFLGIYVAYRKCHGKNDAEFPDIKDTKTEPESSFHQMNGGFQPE
Experiment: Inhibition of [24-14C]-taurocholic acid uptake in CHO/pRIBAT8 cells
Type: cell-based
Conditions: 21° C., 30 minutes
Source text: These were derivatives of the generally known "Chinese hamster ovary" (CHO) cell line, which on account of incorporated expression plasmids additionally produced sodium-dependent bile acid transporters. The first cell line (CHO/pRIBAT8) was in this case the ileal transporter of the rabbit (RIBAT), the second (CHO/pHIBAT8) the ileal transporter of the human (HIBAT) and the third (CHO/pHLBAT5) the hepatic transporter of the human. All plasmids were based on the standard plasmid pCDNA1neo, which as important elements has a cytomegaloviral promoter for the permanent expression of heterologous genes and a gene for the production of cell resistance against the substance G418.
The starting material for the production of the plasmid for the RIBAT-producing cell line (pRIBAT8) was total RNA of the terminal ileum of the rabbit. […]
For the preparation of the genetically modified cell lines, CHO cells were transfected with DNA from pRIBAT8, pHIBAT8 or pHLBAT5 and cells which developed resistance against the selection substance G418 were selectively additionally cultured by addition of the substance to the cell medium. […] They could thereby be easily differentiated from cells without intact bile acid transporters with the aid of a fluorescence microscope. […]

`CCCCC1(CC)CS(=O)(=O)c2cc(O[C@@H]3O[C@H](C(=O)O)[C@@H](O)[C@H](O)[C@H]3O)ccc2C(c2ccccc2)N1` (stereo partly shown) [Example 3] showed an IC50 of 70 nM.
